Data taken from ChEMBL document CHEMBL4376898, “Enhanced Activity against Multidrug-Resistant Bacteria through Coapplication of an Analogue of Tachyplesin I and an Inhibitor of the QseC/B Signaling Pathway” (J Med Chem, 2020).
Converted amounts (≈) assume the structure as drawn. The source made the active and inactive calls. No cut-off for these calls is given here.

What was measured:
[1] = Stability in human plasma assessed as parent compound degradation at […] measured after 6 hrs by HPLC analysis; assay type: ADME, cell-free; conditions: read-out: Drug degradation
[2] = test system: Escherichia coli; experiment: Antimicrobial activity against Escherichia coli ATCC 25923 assessed as inhibition of visible growth incubated for 18 hrs; assay type: functional; conditions: ATCC 25923, 18 h
[3] = test system: Klebsiella pneumoniae; experiment: Antimicrobial activity against Klebsiella pneumoniae BAA 2470 assessed as inhibition of visible growth incubated for 18 hrs; assay type: functional; conditions: BAA 2470, 18 h
[4] = test system: Staphylococcus aureus; experiment: Antimicrobial activity against Staphylococcus aureus ATCC 29213 assessed as inhibition of visible growth incubated for 18 hrs; assay type: functional; conditions: ATCC 29213, 18 h
[5] = test system: Staphylococcus aureus; experiment: Antimicrobial activity against Staphylococcus aureus BAA 44 assessed as inhibition of visible growth incubated for 18 hrs; assay type: functional; conditions: BAA 44, 18 h
[6] = test system: Lysobacter enzymogenes; experiment: Antimicrobial activity against Lysobacter enzymogenes YC36 assessed as inhibition of visible growth incubated for 18 hrs; assay type: functional
[7] = test system: Lysobacter enzymogenes; experiment: Bactericidal activity against Lysobacter enzymogenes YC36 at 4 ug/ml; assay type: functional
[8] = test system: Escherichia coli; experiment: Antimicrobial activity against Escherichia coli K-12 assessed as inhibition of visible growth incubated for 18 hrs; assay type: functional; conditions: K-12, 18 h
[9] = test system: L02; experiment: Cytotoxicity in human L02 cells assessed as reduction in cell viability at <32 ug/ml incubated for 48 hrs by resazurin dye based assay; conditions: l02, 48 h
[10] = test system: Shigella flexneri; experiment: Bactericidal activity against Shigella flexneri ATCC 29903; assay type: functional
[11] = test system: Erythrocyte; experiment: Toxicity in human erythrocytes assessed as induction of hemolysis incubated for 1 hr by visual absorption spectroscopy; assay type: cell-based
[12] = test system: Klebsiella pneumoniae; experiment: Antimicrobial activity against Klebsiella pneumoniae BAA 1144 assessed as inhibition of visible growth incubated for 18 hrs; assay type: functional; conditions: BAA 1144, 18 h
[13] = test system: Enterobacter cloacae; experiment: Antimicrobial activity against Enterobacter cloacae BAA 1143 assessed as inhibition of visible growth incubated for 18 hrs; assay type: functional; conditions: BAA 1143, 18 h
[14] = Bactericidal activity against Lysobacter enzymogenes YC36; assay type: functional
[15] = Antimicrobial activity against Lysobacter enzymogenes YC36 assessed as inhibition of visible growth measured after 7th generation exposure to compound by continuous repeated transfer assay relative to before passage; assay type: functional
[16] = Stability in human plasma assessed as parent compound remaining at […] measured after 2 hrs by HPLC analysis; assay type: ADME, cell-free; conditions: read-out: Stability
[17] = test system: Pseudomonas aeruginosa; experiment: Antimicrobial activity against Pseudomonas aeruginosa ATCC 27853 assessed as inhibition of visible growth incubated for 18 hrs; assay type: functional; conditions: ATCC 27853, 18 h
[18] = test system: Enterococcus faecium; experiment: Antimicrobial activity against Enterococcus […] ATCC 29212 assessed as inhibition of visible growth incubated for 18 hrs; assay type: functional; conditions: ATCC 29212, 18 h
[19] = test system: Escherichia coli; experiment: Bactericidal activity against Escherichia coli K-12; assay type: functional
[20] = test system: Staphylococcus aureus; experiment: Bactericidal activity against Staphylococcus aureus ATCC 29213; assay type: functional
[21] = test system: L02; experiment: Cytotoxicity in human L02 cells assessed as reduction in cell viability at >64 ug/ml incubated for 48 hrs by resazurin dye based assay; conditions: l02, 48 h
[22] = test system: Staphylococcus aureus; experiment: Antimicrobial activity against Staphylococcus aureus BAA 41 assessed as inhibition of visible growth incubated for 18 hrs; assay type: functional; conditions: BAA 41, 18 h
[23] = test system: Erythrocyte; experiment: Toxicity in human erythrocytes assessed as induction of hemolysis at <50 ug/ml incubated for 1 hr by spectrometry; assay type: cell-based
[24] = test system: Pseudomonas aeruginosa; experiment: Antimicrobial activity against Pseudomonas aeruginosa BAA 2108 assessed as inhibition of visible growth incubated for 18 hrs; assay type: functional; conditions: BAA 2108, 18 h
[25] = test system: Bacillus subtilis; experiment: Antimicrobial activity against Bacillus subtilis 168 assessed as inhibition of visible growth incubated for 18 hrs; assay type: functional; conditions: Bacillus subtilis, 168, 18 h
[26] = test system: Bacillus subtilis; experiment: Bactericidal activity against Bacillus subtilis 168; assay type: functional
[27] = test system: Acinetobacter baumannii; experiment: Bactericidal activity against Acinetobacter baumannii ATCC 19606; assay type: functional; conditions: ATCC 19606 = CIP 70.34 = JCM 6841
[28] = test system: Acinetobacter baumannii; experiment: Antimicrobial activity against Acinetobacter baumannii ATCC 19606 assessed as inhibition of visible growth incubated for 18 hrs; assay type: functional; conditions: ATCC 19606 = CIP 70.34 = JCM 6841, 18 h
[29] = test system: Enterococcus faecium; experiment: Bactericidal activity against Enterococcus […] ATCC 29212; assay type: functional
[30] = test system: Erythrocyte; experiment: Toxicity in human erythrocytes assessed as induction of hemolysis incubated for 1 hr by spectrometry; assay type: cell-based
[31] = test system: Escherichia coli; experiment: Antimicrobial activity against Escherichia coli BAA 2469 assessed as inhibition of visible growth incubated for 18 hrs; assay type: functional; conditions: BAA 2469, 18 h
[32] = test system: Pseudomonas aeruginosa; experiment: Bactericidal activity against Pseudomonas aeruginosa ATCC 27853; assay type: functional
[33] = test system: Lipid bilayer; experiment: Induction of membrane lysis in LUVs composed of Escherichia coli lipid extract filled with 5-carboxyfluorescein incubated in dark for 20 mins by fluorescence based assay
[34] = test system: Lysobacter enzymogenes; experiment: Induction of drug efflux pumps gene expression in Lysobacter enzymogenes YC36 assessed as increase in ftsX expression at 2 ug/ml by genome-wide transcription profiling assay; assay type: functional
[35] = test system: Lysobacter enzymogenes; experiment: Induction of drug efflux pumps gene expression in Lysobacter enzymogenes YC36 assessed as increase in QseC expression at 2 ug/ml by genome-wide transcription profiling assay; assay type: functional
[36] = test system: Pseudoalteromonas antarctica; experiment: Bactericidal activity against Pseudoalteromonas antarctica at 2 ug/ml in presence of 5 pM QseC inhibitor LED209; assay type: functional, organism-based
[37] = test system: Lysobacter enzymogenes; experiment: Induction of drug efflux pumps gene expression in Lysobacter enzymogenes YC36 assessed as increase in QseB expression at 2 ug/ml by genome-wide transcription profiling assay; assay type: functional
[38] = test system: Lysobacter enzymogenes; experiment: Bactericidal activity against Lysobacter enzymogenes YC36 with delta qseC mutant; assay type: functional
[39] = test system: Lysobacter enzymogenes; experiment: Induction of drug efflux pumps gene expression in Lysobacter enzymogenes YC36 assessed as increase in czcB expression at 2 ug/ml by genome-wide transcription profiling assay; assay type: functional
[40] = test system: Lysobacter enzymogenes; experiment: Bactericidal activity against Lysobacter enzymogenes YC36 with delta qseB mutant; assay type: functional
[41] = test system: Lysobacter enzymogenes; experiment: Induction of drug efflux pumps gene expression in Lysobacter enzymogenes YC36 assessed as increase in yceL expression at 2 ug/ml by genome-wide transcription profiling assay; assay type: functional
[42] = test system: Stenotrophomonas maltophilia; experiment: Bactericidal activity against Stenotrophomonas maltophilia at 2 ug/ml in presence of 5 pM QseC inhibitor LED209; assay type: functional, organism-based
[43] = test system: Lysobacter enzymogenes; experiment: Bactericidal activity against Lysobacter enzymogenes YC36 at 10 ug/ml; assay type: functional
[44] = test system: Lysobacter enzymogenes; experiment: Bactericidal activity against Lysobacter enzymogenes YC36 at 2 ug/ml in presence of 5 pM QseC inhibitor LED209; assay type: functional
[45] = test system: Lysobacter enzymogenes; experiment: Induction of bacterial cell membrane leakage in Lysobacter enzymogenes YC36 assessed as induction of serious depressions with leakage of intracellular contents surrounding bacteria by atomic force microscopy; assay type: functional, cell-based
[46] = test system: Lysobacter enzymogenes; experiment: Induction of drug efflux pumps gene expression in Lysobacter enzymogenes YC36 assessed as increase in nodT expression at 2 ug/ml by genome-wide transcription profiling assay; assay type: functional
[47] = test system: Lysobacter enzymogenes; experiment: Induction of drug efflux pumps gene expression in Lysobacter enzymogenes YC36 with delta qseB mutant at 2 ug/ml by genome-wide transcription profiling assay; assay type: functional
[48] = test system: Lysobacter enzymogenes; experiment: Germicidal activity against Lysobacter enzymogenes YC36 at 5 to 10 pM; assay type: functional

CC[C@H](C)[C@@H]1NC(=O)CNC(=O)[C@H](CCCNC(=N)N)NC(=O)[C@H](Cc2ccc(O)cc2)NC(=O)[C@@H]2CSSC[C@H](NC1=O)C(=O)N[C@@H](Cc1ccc(O)cc1)C(=O)N[C@@H](CCCNC(=N)N)C(=O)N[C@@H](CCCNC(=N)N)C(=O)N[C@H](C(=O)N[C@@H](CCCNC(=N)N)C(N)=O)CSSC[C@H](NC(=O)[C@H](Cc1c[nH]c3ccccc13)NC(=O)[C@@H](N)CCCCN)C(=O)N[C@@H](Cc1ccccc1)C(=O)N[C@@H](CCCNC(=N)N)C(=O)N[C@@H](C(C)C)C(=O)N2
metabolised at 6 h [1]: 100% | MIC [2]: 2 to 4 µg/mL (≈ 0.883 to 1.77 µM) | MIC [3]: 16 µg/mL (≈ 7.07 µM) | MIC [4]: 8 µg/mL (≈ 3.53 µM) | MIC [5]: 4 µg/mL (≈ 1.77 µM) | Activity [6]: Dose-dependent effect | Activity [7]: inactive | MIC [8]: 4 µg/mL (≈ 1.77 µM) | Activity [9]: Non-Toxic | MBC [10]: 16 to 64 µg/mL (≈ 7.07 to 28.3 µM) | MHC [11]: 0.25 µg/mL | MIC [12]: 8 µg/mL (≈ 3.53 µM) | MIC [13]: 8 µg/mL (≈ 3.53 µM) | MBC [14]: 16 to 64 µg/mL (≈ 7.07 to 28.3 µM) | fold change (FC) [15]: 2 | remaining at 2 h [16]: 20% | MIC [17]: 4 to 8 µg/mL (≈ 1.77 to 3.53 µM) | MIC [18]: 8 µg/mL (≈ 3.53 µM) | MBC [19]: 16 to 64 µg/mL (≈ 7.07 to 28.3 µM) | MBC [20]: 16 to 64 µg/mL (≈ 7.07 to 28.3 µM) | Activity [21]: Toxic | MIC [22]: 4 µg/mL (≈ 1.77 µM) | Activity [23]: Toxic | MIC [24]: 8 µg/mL (≈ 3.53 µM) | MIC [25]: 4 µg/mL (≈ 1.77 µM) | MBC [26]: 16 to 64 µg/mL (≈ 7.07 to 28.3 µM) | MBC [27]: 16 to 64 µg/mL (≈ 7.07 to 28.3 µM) | MIC [28]: 8 to 16 µg/mL (≈ 3.53 to 7.07 µM) | MBC [29]: 16 to 64 µg/mL (≈ 7.07 to 28.3 µM) | Activity [30]: Dose-dependent effect | MIC [31]: 8 µg/mL (≈ 3.53 µM) | MBC [32]: 16 to 64 µg/mL (≈ 7.07 to 28.3 µM)

CC[C@H](C)[C@H]1NC(=O)CNC(=O)[C@@H](CCCNC(=N)N)NC(=O)[C@@H](Cc2ccc(O)cc2)NC(=O)[C@H]2CSSC[C@@H](NC1=O)C(=O)N[C@H](Cc1ccc(O)cc1)C(=O)N[C@H](CCCNC(=N)N)C(=O)N[C@H](CCCNC(=N)N)C(=O)N[C@@H](C(=O)N[C@H](CCCNC(=N)N)C(N)=O)CSSC[C@@H](NC(=O)[C@@H](Cc1c[nH]c3ccccc13)NC(=O)[C@H](N)CCCCN)C(=O)N[C@H](Cc1ccccc1)C(=O)N[C@H](CCCNC(=N)N)C(=O)N[C@H](C(C)C)C(=O)N2
Activity [33]: Dose-dependent effect | Activity [34]: Active | Activity [35]: Active | Activity [6]: Dose-dependent effect | Activity [36]: Active | Activity [7]: Active | Activity [37]: Active | Activity [38]: Active | Activity [39]: Active | Activity [40]: Active | Activity [41]: Active | Activity [42]: Active | Activity [43]: inactive | Activity [44]: Active | Activity [45]: Active | Activity [46]: Active | Activity [47]: inactive

O=S(=O)(Nc1ccccc1)c1ccc(NC(=S)Nc2ccccc2)cc1
Activity [48]: inactive
